The test relates to moderate to severe post-operative dental pain. As to the kind of experiment: PK/PD dental pain study, 12 hour observation period.

Protocol: A double-blind, randomized, parallel, placebo-controlled, single center, PK/PD dental pain study was conducted over a 12 hour observation period to evaluate the pharmacokinetic, pharmacodynamic, efficacy and safety profiles of certain ibuprofen dosing regimens. Specifically, a single dose of 600 mg ibuprofen extended release caplets was compared with equivalent total doses of ibuprofen immediate release 200 mg caplets administered in three different dosing regimens as well as placebo in the treatment of moderate to severe post-operative dental pain. […] One sub-group of patients had both pharmacokinetic and pharmacodynamic evaluation (PK group). The other sub-group of patients had only the analgesic efficacy evaluations (non-PK group). Patients from both subgroups were assigned at random to one of the five following treatments:
A stopwatch technique was used to measure the onset of meaningful pain relief.

Take `CC(C)Cc1ccc(C(C)C(=O)O)cc1` (stereo not shown) [ibuprofen, 2-(4-isobutylphenyl)-propionic acid]: the “pain relief during the first four hours” value is “superior pain relief over the other treatments” (400/200/0 regimen: immediate release 400 mg at 0 hour, 200 mg at 4 hours) and “superior pain relief over the other treatments” (600/0/0 immediate release treatment: 600 mg single dose at 0 hour). In addition, under “400/200/0 regimen: immediate release 400 mg at 0 hour, 200 mg at 4 hours, dental pain patients”, the “pain relief over the entire 12-hour study period” value is “excellent pain relief”. In addition, the “pain relief scores during the 4 to 12 hour interval” value (400/200/0 regimen, no further ibuprofen after the first four hours) is “highest pain relief scores”.

Values taken from patent publication US8211465B2, “Immediate release and sustained release ibuprofen dosing regimen” (McNeil-PPC, Inc., priority 2007, dated 2012).
